Measured values taken from patent publication US20260096569A1, “EDIBLE COATING WITH ANTIMICROBIAL PROPERTIES” (priority 2021, published 2026).
Entries after “also recorded” stand apart in the source; their conditions may differ. Read-outs that look alike come from different tables or passages of the source.

Tests used:
[1] = system: Colletotrichum; experiment: Screening for stem end rot (Colletotrichum) infection control, California avocados; type: in vivo
From the text: To screen for infection control of stem end rot (Colletotrichum) with epicatechin, ASM, and MeSA (methyl salicylate), California avocados size 84 were infected with Colletotrichum spores (103 spores/ml) and treated with 0.01% an imidazole antifungal agent, such as Prochloraz, 0.1% epicatechin, 0.01% ASM, or 0.1% MeSA, as indicated. Uninfected and infected controls were not exposed to treatments. […] Disease index is on a scale from 0-1 and takes into account both the percent of fruit infected and the average severity of the infection in the sample group. The average severity is on a scale from 0-4. Percent disease index is calculated as follows: (Percent infected*Average infection severity)/4.

[2] = system: Colletotrichum; experiment: Salicylic acid, sodium salicylate and chitosan on stem end rot of infected California avocados; type: in vivo
Description: To determine the impact of salicylic acid, sodium salicylate, and chitosan on stem end rot (Colletotrichum), California avocados size 96 were infected with 10^3 Colletotrichum spores and treated with 0.01% of an imidazole antifungal agent, such as Prochloraz, 0.05% salicylic acid, 0.1% salicylic acid, 0.2% salicylic acid, 1% sodium salicylate, or 1% chitosan+5 mM C10 monoglyceride. Uninfected and infected controls were not exposed to treatments. Following treatment, the percent disease index of stem end rot was determined for each avocado. […] However, the 1% chitosan+5 mM C10 monoglyceride treatment sample size was 14 avocados.

[3] = Organic mixture and carvacrol on wounded organic lemons: mass loss and skin damage; type: in vivo; details: carvacrol alone (5 g/L carvacrol+0.25 g/L sodium stearate)
From the text: To determine the impact of an organic mixture of glycerol monostearate and sodium stearate mixed with carvacrol on mass loss and mold incidence in organic lemons, unwaxed California organic lemons sized 140 were exposed to 30 g/L an organic mixture of glycerol monostearate and sodium stearate mixed, 30 g/L an organic mixture of glycerol monostearate and sodium stearate+5 g/L carvacrol, or 5 g/L carvacrol+0.25 g/L sodium stearate, or were untreated. Batches of 140 lemons per condition were used. Lemons were physically wounded with the stem of another lemon, dipped into a treatment or left untreated, and dried in ambient conditions. Mass loss and disease incidence (% of group with mold) were measured. The addition of carvacrol to an organic mixture of glycerol monostearate and sodium stearate mixed with carvacrol increased mass loss factor to 1.7×compared to the organic mixture of glycerol monostearate and sodium stearate mixed with carvacrol alone, which was 1.3× of the untreated group (FIG. 15A). The addition of carvacrol to an organic mixture of glycerol monostearate and sodium stearate mixed with carvacrol reduced the incidence of mold ˜12% from untreated lemons and 22% from an organic mixture of glycerol monostearate and sodium stearate mixed with carvacrol alone treated lemons after 6.5 days of ambient storage (FIG. 15B).

[4] = Mixture and carvacrol on organic lemons in cold storage: mass loss and quality; type: in vivo; details: carvacrol alone (10 g/L carvacrol+50 g/L ethanol), dried in ambient conditions
Description: Batches of 120 lemons per condition were used. Lemons were dipped into a treatment or left untreated, dried in ambient conditions, and stored at 8° C., 80% relative humidity for several weeks. Mass loss was measured.

[5] = system: vascular browning; experiment: Mixture and carvacrol on avocados: incidence of vascular browning; type: in vivo; details: 10 g/L carvacrol alone
Description: (§1) Fifty-four avocados were tested per treatment. Avocados were dipped into treatment liquids and allowed to dry. Respiration (CO2 production), mass loss, disease indices of stem end rot and vascular browning were measured. […] The timing of spoilage was affected by treatments (FIG. 14).

[6] = Mixture and carvacrol on avocados: respiration and mass loss; type: in vivo
Description: as §1

[7] = Mixture with increasing carvacrol and ethanol on organic lemons: mass loss and quality; type: in vivo; details: heated drying in a drying tunnel
Description: Specifically, 1 g/L carvacrol+5 g/L ethanol, 2 g/L carvacrol+10 g/L ethanol, 3 g/L carvacrol+15 g/L ethanol, 6 g/L carvacrol+30 g/L ethanol, or 8 g/L carvacrol+40 g/L ethanol. Batches of 120 lemons per condition were used. Lemons were dipped into a treatment or left untreated, dried in heated conditions in a drying tunnel, and stored at ambient conditions. Mass loss was measured.

[8] = system: stem end rot; experiment: Mixture and carvacrol on avocados: incidence of stem end rot; type: in vivo; details: 10 g/L carvacrol alone
Description: as §1

[9] = Avocado storage: CO2 production (respiration) and mass loss, salicylic acid; type: in vivo; details: Mexican avocados size 60 stored about one month, 0.6 g/L, two days
From the text: (§2) Avocados were Mexican avocados size 60. […] Avocados were monitored for two days for CO2 production (respiration) rate, mass loss, incidence of stem end rot, and severity of stem end rot disease. […] This could be due to changes in the barrier stability or barrier properties when salicylic acid is combined with the mixture of glycerol monostearate and sodium stearate. When comparing the mass loss factor using the salicylic acid+the mixture of glycerol monostearate and sodium stearate to the mixture itself, there was a 0.35× improvement. Severity of stem end rot disease was measured on a 1-4 stem end rot severity scale (STR).

[10] = system: stem end rot; experiment: Avocado storage, five days: incidence and severity of stem end rot; type: in vivo; details: Mexican avocados size 60, five days
From the text: (§3) To determine the impact of salicylic acid and a mixture of 94% glycerol monostearate and a 6% fatty acid salt combinatorial treatment on avocado, Mexican avocados size 60 were exposed to 0.6 g/L salicylic acid, 2.0 g/L salicylic acid, 30 g/L a mixture of glycerol monostearate and sodium stearate, or 0.6 g/L salicylic acid+30 g/L a mixture of glycerol monostearate and sodium stearate treatments. To treat, avocados were removed form cold storage and left at room temperature for four hours. Avocados were then dipped in treatments as indicated and dried in a drying tunnel. Uninfected controls were not exposed to treatments. Avocados were monitored for five days for CO2 production (respiration) rate, mass loss, incidence of stem end rot, and severity of stem end rot disease on a 1-4 stem end rot severity scale (STR). The experiment was concluded when untreated avocados reached a ripeness of <35 shore. […] This may be due to changes in barrier stability or properties.

[11] = Avocado storage, five days: CO2 production (respiration), salicylic acid and mixture; type: in vivo; details: Mexican avocados size 60, 0.6 g/L or 2.0 g/L salicylic acid
From the text: as §3

[12] = system: Colletotrichum; experiment: Sequential salicylic acid and mixture treatments on stem end rot of infected Mexican avocados; type: in vivo
Description: The pH was adjusted with 1M NaOH. Salicylic acid treatments were performed and dried before subsequent treatments with the mixture of glycerol monostearate and sodium stearate were performed for combinatorial treatments. Controls with salicylic acid treatment and a subsequent treatment with water were also performed. Uninfected controls were not exposed to treatments. Following treatment, the disease index of stem end rot was determined for each avocado. […] Salicylic acid was effective in treatments with salicylic acid first and the mixture of glycerol monostearate and sodium stearate treatment second (FIG. 9).

[13] = Viscosity and pH of salicylic acid and mixture combinations; type: physicochemical; details: salicylic acid 0.15-1.0 g/L in water
From the text: The viscosity decreased as the mixture concentration increased, and as the salicylic acid concentration increased (FIG. 11A). […] The maximum amount of salicylic acid that could be added was about 2% of the weight of the mixture (FIG. 10).

[14] = system: Colletotrichum; details: cited from earlier work
[15] = system: stem end rot; experiment: Avocado storage: incidence and severity of stem end rot, salicylic acid; type: in vivo; details: Mexican avocados size 60, 0.6 g/L salicylic acid, two days
From the text: as §2

[16] = system: Colletotrichum; experiment: Salicylic acid and pH on stem end rot of infected Mexican avocados; type: in vivo
Description: To determine the impact of salicylic acid and pH on stem end rot (Colletotrichum), Colletotrichum disease indices of avocados were determined with various treatments. […] Mexican avocados size 84 were infected with 103 Colletotrichum spores and treated with 1M NaOH pH 6, 0.01% of an imidazole antifungal agent, such as Prochloraz, 0.2% salicylic acid pH 2.5, or 0.2% salicylic acid pH 6. pH was adjusted with 1M NaOH. Uninfected and infected controls were not exposed to treatments. Infection rate was near 100% for the water treated control. Treatment of infected avocados with pH 2.5. […] Treatment with salicylic acid at pH 2.5 reduced percent infection by nearly 70%. However, the percent disease index remained at 100% during treatment with salicylic acid at a pH of 6 (FIG. 7).

[17] = system: Colletotrichum; experiment: Salicylic acid and chitosan combinations on stem end rot of infected Mexican avocados; type: in vivo; details: infected Mexican avocados size 84, 0.2%, compared with the other treatments
Description: To determine the impact of salicylic acid and chitosan combinations on stem end rot (Colletotrichum), Mexican avocados size 84 were infected with 103 Colletotrichum spores and treated with 0.01% of an imidazole antifungal agent, such as Prochloraz, 0.1% low molecular weight chitosan (1 g/L), 0.2% salicylic acid, or 0.2% salicylic acid+0.1% chitosan. Uninfected and infected controls were not exposed to treatments. Following treatment, the percent disease index of stem end rot was determined for each avocado.

[18] = infected California avocados size 84, treatment 0.01%

## CSC(=O)c1cccc2nnsc12 [ASM, Acibenzolar-S-Methyl]
[1]; [18]
  percent disease index for stem end rot: significantly smaller disease indices compared to the infected control

## COC(=O)c1ccccc1O [MeSA, methyl salicylate]
[1]; infected California avocados size 84, treatment 0.1%
  percent disease index for stem end rot: no observed effect

## CCCN(CCOc1c(Cl)cc(Cl)cc1Cl)C(=O)n1ccnc1 [Prochloraz]
[2]; infected California avocados size 96, 0.01%
  percent disease index of stem end rot: effective at decreasing the disease index compared to the infected control
[1]; [18]
  percent disease index for stem end rot: effective at decreasing the observed disease index

## Cc1ccc(C(C)C)cc1O [carvacrol]
[3]
  damage to lemon skin: damaged the lemon skin
[4]
  damage to lemon skin: skin burns; also recorded: damaged the lemon skin
[5]
  disease incidence of vascular browning: almost eliminated disease incidence
[6]; California avocados sized 96, 10 g/L carvacrol alone
  respiration (CO2 production): may have accelerated respiration
[6]; California avocados sized 96, 10 g/L carvacrol, versus untreated avocados
  mass loss: negligible effect on mass loss
[7]
  carvacrol lemon skin burns: prevented carvacrol lemon skin burns
[8]
  disease incidence of stem end rot: almost eliminated disease incidence

## O=C(O)c1ccccc1O [salicylic acid]
[9]
  CO2 production (respiration) rate: increased the respiration compared to the control
[2]; infected California avocados size 96, 0.05%
  percent disease index of stem end rot: reduced the stem end rot disease index
[2]; infected California avocados size 96, 0.1%
  percent disease index of stem end rot: reduced the stem end rot disease index
[2]; infected California avocados size 96, 0.2%
  percent disease index of stem end rot: reduced the stem end rot disease index; also recorded: most effective
[10]
  incidence of stem end rot: slight reductions
  severity of stem end rot (1-4 STR scale): slight reductions
[11]
  CO2 production (respiration): did not increase CO2 production (respiration) compared to the control
[12]; infected Mexican avocados size 84, decreased concentration (0.06%), pH 2.3
  percent disease index of stem end rot versus infected water control: more effective than then infected water control treatment
[12]; infected Mexican avocados size 84, from 0.2% to 0.06%, pH 2.3
  percent disease index of stem end rot, effect of decreasing concentration: reduced the effectiveness of the treatment
[12]; salicylic acid treatment dried, then a second treatment (mixture or water)
  percent disease index of stem end rot: reduced the percent disease indices
[13]
  pH in water: 2-2.5
[14]; pH 2.5
  germination: inhibits germination
[14]; pH raised to pH 6
  germination: loses its inhibitory effect
[15]
  incidence of stem end rot: not incidence
  severity of stem end rot disease (1-4 STR scale): reduce the severity
[16]; infected Mexican avocados size 84, 0.2% salicylic acid pH 2.5
  reduction of percent infection: ~70%
[16]; infected Mexican avocados size 84, 0.2% salicylic acid pH 6
  percent disease index: 100%
[17]
  percent disease index of stem end rot: greatest effect

## O=C([O-])c1ccccc1O.[Na+] [sodium salicylate]
[2]; infected California avocados size 96, 1%
  percent disease index of stem end rot: did not significantly reduce the disease index
